Measurements reported in patent publication US20220089575A1, “FARNESOID X RECEPTOR AGONISTS AND USES THEREOF” (Metacrine, Inc., priority 2017, published 2022).

Target: T1, hFXR (Homo sapiens, UniProt Q96RI1)
T1 construct: expressed in transfected cells; host or cells: CV-1 cells
T1 sequence (Q96RI1 1-486): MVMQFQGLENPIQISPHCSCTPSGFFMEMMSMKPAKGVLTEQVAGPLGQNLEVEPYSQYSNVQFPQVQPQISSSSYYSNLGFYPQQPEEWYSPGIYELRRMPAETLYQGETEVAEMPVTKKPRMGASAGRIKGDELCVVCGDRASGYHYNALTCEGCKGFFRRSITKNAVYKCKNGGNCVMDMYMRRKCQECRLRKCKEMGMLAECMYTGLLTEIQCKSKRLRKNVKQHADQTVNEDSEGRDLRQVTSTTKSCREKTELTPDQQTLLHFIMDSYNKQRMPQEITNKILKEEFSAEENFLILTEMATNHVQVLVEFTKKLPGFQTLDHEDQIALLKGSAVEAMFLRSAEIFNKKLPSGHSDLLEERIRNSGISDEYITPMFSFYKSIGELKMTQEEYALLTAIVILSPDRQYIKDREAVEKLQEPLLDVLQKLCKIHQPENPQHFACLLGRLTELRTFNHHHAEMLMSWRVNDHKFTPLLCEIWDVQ
T1 sequence (P19793 1-462 partner): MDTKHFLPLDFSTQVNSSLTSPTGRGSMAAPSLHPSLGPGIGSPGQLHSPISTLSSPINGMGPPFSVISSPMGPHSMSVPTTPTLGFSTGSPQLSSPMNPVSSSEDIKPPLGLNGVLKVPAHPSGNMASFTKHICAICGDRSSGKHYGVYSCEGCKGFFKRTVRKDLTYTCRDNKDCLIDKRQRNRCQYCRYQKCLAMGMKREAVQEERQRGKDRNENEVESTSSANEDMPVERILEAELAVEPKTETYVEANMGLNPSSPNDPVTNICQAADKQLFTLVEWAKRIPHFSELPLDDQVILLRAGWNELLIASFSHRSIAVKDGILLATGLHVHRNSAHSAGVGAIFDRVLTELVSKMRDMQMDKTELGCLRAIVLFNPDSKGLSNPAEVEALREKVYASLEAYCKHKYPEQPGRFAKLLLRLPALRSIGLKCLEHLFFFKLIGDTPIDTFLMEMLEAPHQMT
Assay: In Vitro FXR Assay (TK): TK-ECRE-luc reporter in transfected CV-1 cells
Assay type: cell-based
Conditions: 18 hrs, luminescence, maximum efficacy of <25% of the Fexarmine control classified as '+'
How it was run: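 Reporter transactivation by hFXR was measured in CV-1 cells carrying hRXR and a TK-ECRE-luc construct, with compound treatment for 18 h before lysis and luminescence detection.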

Row | SMILES | EC50 [nM]
1 | COc1ncc(-c2cccc(N(C[C@H]3CC[C@H](c4ccc(OC)c(C)c4)CC3)C(=O)[C@H]3CC[C@H](C(N)=O)CC3)c2)s1 [Compound 24.01, trans-N^1-((trans-4-(4-Methoxy-3-methylphenyl)cyclohexyl)methyl)-N^1-(3-(2-methoxythiazol-5-yl)phenyl)cyclohexane-1,4-dicarboxamide] | ≤ 250
2 | COc1ncc(-c2cccc(N(C[C@H]3CC[C@H](c4ccc(OC)c(C)c4)CC3)C(=O)[C@H]3CC[C@H](C(=O)N(C)C)CC3)c2)s1 [Compound 24.02, trans-N^1-((trans-4-(4-Methoxy-3-methylphenyl)cyclohexyl)methyl)-N^1-(3-(2-methoxythiazol-5-yl)phenyl)-N^4,N^4-dimethylcyclohexane-1,4-dicarboxamide] | ≤ 250
3 | COc1ncc(-c2cccc(N(C[C@H]3CC[C@H](c4ccc(OC)c(C)c4)CC3)C(=O)[C@H]3CC[C@H](C(=O)NCCO)CC3)c2)s1 [Compound 24.03] | ≤ 250
4 | COCCNC(=O)[C@H]1CC[C@H](C(=O)N(C[C@H]2CC[C@H](c3ccc(OC)c(C)c3)CC2)c2cccc(-c3cnc(OC)s3)c2)CC1 [Compound 24.04, trans-N^1-((trans-4-(4-Methoxy-3-methylphenyl)cyclohexyl)methyl)-N^4-(2-methoxyethyl)-N^1-(3-(2-methoxythiazol-5-yl)phenyl) cyclohexane-1,4-dicarboxamide] | ≤ 250
5 | COc1ncc(-c2cccc(N(C[C@H]3CC[C@H](c4ccc(OC)c(C)c4)CC3)C(=O)[C@H]3CC[C@H](C(=O)NCCN(C)C)CC3)c2)s1 [Compound 24.05, trans-N^1-(2-(Dimethylamino)ethyl)-N^4-((trans-4-(4-methoxy-3-methylphenyl)cyc1ohexyl)methyl)-N^4-(3-(2-methoxythiazol-5-yl)phenyl)cyclohexane-1,4-dicarboxamide] | 250 to 1000
6 | COc1ncc(-c2cccc(N(C[C@H]3CC[C@H](c4ccc(OC)c(C)c4)CC3)C(=O)[C@H]3CC[C@H](C(=O)NS(C)(=O)=O)CC3)c2)s1 [Compound 24.06, trans-N^1-((trans-4-(4-Methoxy-3-methylphenyl)cyclohexyl)methyl)-N^1-(3-(2-methoxythiazol-5-yl)phenyl)-N^4-(methylsulfonyl) cyclohexane-1,4-dicarboxamide] | ≤ 250
7 | COC(=O)N[C@H]1CC[C@H](C(=O)N(C[C@H]2CC[C@H](c3ccc(OC)c(C)c3)CC2)c2cccc(-c3cnc(C4CC4)s3)c2)CC1 [Compound 25, Methyl (trans-4-((3-(2-cyclopropylthiazol-5-yl)phenyl)((trans-4-(4-methoxy-3-methylphenyl)cyclohexyl)methyl)carbamoyl)cyclohexyl)carbamate] | ≤ 250
8 | COc1ncc(-c2cccc(N(C[C@H]3CC[C@H](c4ccc(OC)c(C)c4)CC3)C(=O)[C@H]3CC[C@H](NC(=O)OC(C)(C)C)CC3)c2)s1 [Compound 25.01, tert-Butyl (trans-4-(((trans-4-(4-methoxy-3-methylphenyl)cyclohexyl)methyl)(3-(2-methoxythiazol-5-yl)phenyl)carbamoyl)cyclohexyl)carbamate] | 250 to 1000
9 | COc1ncc(-c2cccc(N(C[C@H]3CC[C@H](c4ccc(OC)c(C)c4)CC3)C(=O)[C@H]3CC[C@H](CNC(=O)OC(C)(C)C)CC3)c2)s1 [Compound 25.02, tert-Butyl ((trans-4-(((trans-4-(4-methoxy-3-methylphenyl)cyclohexyl)methyl)(3-(2-methoxythiazol-5-yl)phenyl)carbamoyl)cyclohexyl)methyl)carbamate] | 250 to 1000
10 | COc1ncc(-c2cccc(N(C[C@H]3CC[C@H](c4ccc(OC)c(C)c4)CC3)C(=O)[C@H]3CC[C@H](CN)CC3)c2)s1 [Compound 25.03, trans-4-(Aminomethyl)-N-((trans-4-(4-methoxy-3-methylphenyl)cyclohexyl)methyl)-N-(3-(2-methoxythiazol-5-yl)phenyl)cyclohexanecarboxamide] | ≥ 1000
11 | COc1ncc(-c2cccc(N(C[C@H]3CC[C@H](c4ccc(OC)c(C)c4)CC3)C(=O)[C@H]3CC[C@H](NC(C)=O)CC3)c2)s1 [Compound 25.04, trans-4-Acetamido-N-((trans-4-(4-methoxy-3-methylphenyl)cyclohexyl)methyl)-N-(3-(2-methoxythiazol-5-yl)phenyl)cyclohexanecarboxamide] | ≤ 250
12 | COC(=O)N[C@H]1CC[C@H](C(=O)N(C[C@H]2CC[C@H](c3ccc(OC)c(C)c3)CC2)c2cccc(-c3cnc(OC)s3)c2)CC1 [Compound 25.05, Methyl (trans-4-(((trans-4-(4-methoxy-3-methylphenyl)cyclohexyl)methyl)(3-(2-methoxythiazol-5-yl)phenyl)carbamoyl)cyclohexyl) carbamate] | ≤ 250
13 | COc1ncc(-c2cccc(N(C[C@H]3CC[C@H](c4ccc(OC)c(C)c4)CC3)C(=O)[C@H]3CC[C@H](CNC(C)=O)CC3)c2)s1 [Compound 25.06, trans-4-(Acetamidomethyl)-N-((trans-4-(4-methoxy-3-methylphenyl)cyclohexyl)methyl)-N-(3-(2-methoxythiazol-5-yl)phenyl)cyclohexanecarboxamide] | ≤ 250
14 | COC(=O)NC[C@H]1CC[C@H](C(=O)N(C[C@H]2CC[C@H](c3ccc(OC)c(C)c3)CC2)c2cccc(-c3cnc(OC)s3)c2)CC1 [Compound 25.07, Methyl ((trans-4-(((trans-4-(4-methoxy-3-methylphenyl)cyclohexyl)methyl)(3-(2-methoxythiazol-5-yl)phenyl)carbamoyl)cyclohexyl)methyl)carbamate] | ≤ 250
15 | COc1ncc(-c2cccc(N(C[C@H]3CC[C@H](c4ccc(OC)c(C)c4)CC3)C(=O)[C@H]3CC[C@H](CNS(C)(=O)=O)CC3)c2)s1 [Compound 25.08, trans-N-((trans-4-(4-Methoxy-3-methylphenyl)cyclohexyl)methyl)-N-(3-(2-methoxythiazol-5-yl)phenyl)-4-(methylsulfonamidomethyl) cyclohexanecarboxamide] | ≤ 250
16 | COc1ccc([C@H]2CC[C@H](CN(c3cccc(-c4cnc(C5CC5)s4)c3)C(=O)[C@H]3CC[C@H](NC(C)=O)CC3)CC2)cc1C [Compound 25.09, trans-4-Acetamido-N-(3-(2-cyclopropylthiazol-5-yl)phenyl)-N-((trans-4-(4-methoxy-3-methylphenyl)cyclohexyl)methyl) cyclohexanecarboxamide] | ≤ 250
17 | COc1ccc([C@H]2CC[C@H](CN(c3cccc(-c4cnc(C5CC5)s4)c3)C(=O)[C@H]3CC[C@H](N(C)C(C)=O)CC3)CC2)cc1C [Compound 25.10, trans-N-(3-(2-Cyclopropylthiazol-5-yl)phenyl)-N-((trans-4-(4-methoxy-3-methylphenyl)cyclohexyl)methyl)-4-(N-methylacetamido) cyclohexanecarboxamide] | ≤ 250
18 | COc1ccc([C@H]2CC[C@H](CN(c3cccc(-c4cnc(C5CC5)s4)c3)C(=O)[C@H]3CC[C@H](NS(C)(=O)=O)CC3)CC2)cc1C [Compound 25.11, trans-N-(3-(2-Cyclopropylthiazol-5-yl)phenyl)-N-((trans-4-(4-methoxy-3-methylphenyl)cyclohexyl)methyl)-4-(methylsulfonamido) cyclohexanecarboxamide] | ≤ 250
19 | COCC(=O)N[C@H]1CC[C@H](C(=O)N(C[C@H]2CC[C@H](c3ccc(OC)c(C)c3)CC2)c2cccc(-c3cnc(C4CC4)s3)c2)CC1 [Compound 25.12, trans-N-(3-(2-Cyclopropylthiazol-5-yl)phenyl)-N-((trans-4-(4-methoxy-3-methylphenyl)cyclohexyl)methyl)-4-(2-methoxyacetamido) cyclohexanecarboxamide] | ≤ 250
20 | COc1ccc([C@H]2CC[C@H](CN(c3cccc(-c4cnc(C5CC5)s4)c3)C(=O)[C@H]3CC[C@H](NC(=O)COC(C)=O)CC3)CC2)cc1C [Compound 25.13, 2-((trans-4-((3-(2-Cyclopropylthiazol-5-yl)phenyl)((trans-4-(4-methoxy-3-methylphenyl)cyclohexyl)methyl)carbamoyl)cyclohexyl)amino)-2-oxoethyl acetate] | ≤ 250
21 | COc1ccc([C@H]2CC[C@H](CN(c3cccc(-c4cnc(C5CC5)s4)c3)C(=O)[C@H]3CC[C@H](NC(=O)CO)CC3)CC2)cc1C [Compound 25.14, trans-N-(3-(2-Cyclopropylthiazol-5-yl)phenyl)-4-(2-hydroxyacetamido)-N-((trans-4-(4-methoxy-3-methylphenyl)cyclohexyl)methyl) cyclohexanecarboxamide] | ≤ 250
